The text below walks through data of patent US20090280153A1, “electrical devices, anti-scarring agents, and therapeutic compositions” (Angiotech International AG, priority 2005, published 2009).

The subject of assay [1] is fibroblasts and/or smooth muscle cells, macrophages. The assay is described as follows: assays described herein (in vitro screening assays for anti-fibrosis agents). It counts as cell-based. The note with it: approximately, read-out: IC50 range in the assays described herein. An excerpt:
Agents which may inhibit fibrosis or gliosis may be readily identified based upon in vitro and in vivo (animal) models, such as those provided in Examples 39-52. Depending on their mechanisms, various agents may be effective in some, but not all screening assays for anti-fibrosis or anti-gliosis agents, and different agents may be effective in different screening assays. Agents which inhibit fibrosis can be identified through in vivo models including inhibition of intimal hyperplasia development in the rat balloon carotid artery model (Examples 44 and 61). The assays set forth in Examples 43 and 51 may be used to determine whether an agent is able to inhibit cell proliferation in fibroblasts and/or smooth muscle cells. In one aspect of the invention, the agent has an IC50 for inhibition of cell proliferation within a range of about 10^−6 to about 10^−10 M. In certain embodiments, the agent may have an IC50 for inhibition of cell proliferation of less than about 10,000 nM; or less than about 1000 nM; or less than about 100 nM. The assay set forth in Example 47 may be used to determine whether an agent may inhibit migration of fibroblasts and/or smooth muscle cells. In one aspect of the invention, the agent has an IC50 for inhibition of cell migration within a range of about 10^−6 to about 10^−9M. In certain embodiments, the agent may have an IC50 for inhibition of fibroblast or smooth muscle cell migration of less than about 10,000 nM; or less than about 1000 nM; or less than about 100 nM. Assays set forth herein may be used to determine whether an agent is able to inhibit inflammatory processes, including nitric oxide production in macrophages (Example 39), and/or TNF-alpha production by macrophages (Example 40), and/or IL-1 beta production by macrophages (Example 48), and/or IL-8 production by macrophages (Example 49), and/or inhibition of MCP-1 by macrophages (Example 50). In one aspect of the invention, the agent has an IC50 for inhibition of any one of these inflammatory processes within a range of about 10^−6 to about 10^−10M. In certain embodiments, the agent may have an IC50 for any one of these inflammatory processes of less than about 10,000 nM; or less than about 1000 nM; or less than about 100 nM. The assay set forth in Example 45 may be used to determine whether an agent is able to inhibit MMP production. In one aspect of the invention, the agent has an IC50 for inhibition of MMP production within a range of about 10^−4 to about 10^−8M. In certain embodiments, the agent may have an IC50 for inhibition of MMP production of less than about 10,000 nM; or less than about 1000 nM; or less than about 100 nM. The assay set forth in Example 46 (also known as the CAM assay) may be used to determine whether an agent is able to inhibit angiogenesis. In one aspect of the invention, the agent has an IC50 for inhibition of angiogenesis within a range of about 10^−6 to about 10^−10M. In certain embodiments, the agent may have an IC50 for inhibition of angiogenesis of less than about 10,000 nM; or less than about 1000 nM; or less than about 100 nM. The assay set forth in Example 52 may be used to determine whether an agent is able to inhibit MMP-1. In one aspect of the invention, the agent has an IC50 for inhibition of MMP-1 within a range of about 10^−6 to about 10^−10M. In certain embodiments, the agent may have an IC50 for inhibition of MMP-1 of less than about 10,000 nM; or less than about 1000 nM; or less than about 100 nM. Agents which reduce the formation of surgical adhesions may be identified through in vivo models including the rabbit surgical adhesions model (Example 42) and the rat caecal sidewall model (Example 41). […]

Another assay relates to bacteria and fungi. The note with it: surface drug concentration is to exceed this value; cited from earlier work.
In assay [2] the test system is collagenase and stromelysin. Briefly: IL-1 induced collagenase and stromelysin expression in chondrocytes (FIGS. 4D, 5A-H). It is filed as cell-based. The note with it: pretreatment with paclitaxel; FIG. 4D.
The test system of another assay is AP-1. The assay is described as follows: IL-1 induced AP-1 binding activity in chondrocyte lysates (FIG. 4C). It counts as cell-based. The note with it: chondrocytes pretreated with paclitaxel.
The mark [3] stands for this setting: high potency (1-100) or mid-potency (100-500) agents.

Molecules are shown by their SMILES. Like-named read-outs stand apart in the source and are kept apart here.

Take `CCC(C)(C)C(=O)O[C@H]1C[C@@H](C)C=C2C=C[C@H](C)[C@H](CC[C@@H]3C[C@@H](O)CC(=O)O3)[C@H]21` [simvastatin]: the IC50 in assay [1] (low potency agents) lay in the range of 500 to 1000 nM.

As for `C=CC[C@@H]1/C=C(\C)C[C@H](C)C[C@H](OC)[C@H]2O[C@@](O)(C(=O)C(=O)N3CCCC[C@H]3C(=O)O[C@H](/C(C)=C/[C@@H]3CC[C@@H](O)[C@H](OC)C3)[C@H](C)[C@@H](O)CC1=O)[C@H](C)C[C@@H]2OC` [tacrolimus], the half-inhibitory concentration (IC50) in assay [1] (setting [3]) lay in the range of 1 to 100 nM.

Turning to `COc1cccc2c1C(=O)c1c(O)c3c(c(O)c1C2=O)C[C@@](O)(C(=O)CO)C[C@@H]3O[C@H]1C[C@H](N)[C@H](O)[C@H](C)O1` [doxorubicin, Doxorubicin], the “concentration known to be lethal to bacteria and fungi” value (“concentration known to be lethal” below) in the assay on bacteria and fungi is on record as 10^−4 M.

For `C/C=C(/C)C(=O)O[C@H]1C(C)=C2[C@H]([C@@H]1OC(=O)CCCCCCC)[C@@](C)(OC(C)=O)C[C@H](OC(=O)CCC)[C@@]1(O)[C@H]2OC(=O)[C@@]1(C)O` [thapsigargin], the IC50 in assay [1] (setting [3]) fell in the range of 1 to 100 nM.

With `Nc1ncn([C@@H]2O[C@H](CO)[C@@H](O)[C@H]2O)c(=O)n1` [5-azacytidine], in assay [1] (low potency agents), the 50% inhibitory concentration (IC50) was in the range of 500 to 1000 nM.

`COCc1c(C(C)C)nc(C(C)C)c(/C=C/[C@@H](O)C[C@@H](O)CC(=O)O)c1-c1ccc(F)cc1` [cerivastatin]: the half-maximal inhibitory concentration (IC50) in assay [1] (setting [3]) is 1 to 100 nM.

As for `C[C@@H]1C[C@H]2O[C@@H]2/C=C\C=C\C(=O)Cc2c(Cl)c(O)cc(O)c2C(=O)O1` [radicicol], in assay [1] (setting [3]), the 50% inhibitory concentration (IC50) is 1 to 100 nM.

With `COC(=O)C[C@](O)(CCCC(C)(C)O)C(=O)O[C@@H]1C(OC)=C[C@]23CCCN2CCc2cc4c(cc2[C@H]13)OCO4` [homoharringtonine], in assay [1] (setting [3]), the half-inhibitory concentration (IC50) is 1 to 100 nM.

Regarding `CC1=C(/C=C/C(C)=C/C=C/C(C)=C\C(=O)O)C(C)(C)CCC1` [isotretinoin], the IC50 in assay [1] (setting [3]) is 1 to 100 nM.

Turning to `C[C@]12C=CC(=O)C=C1CC[C@@H]1[C@@H]2[C@@H](O)C[C@@]2(C)[C@H]1CC[C@]2(O)C(=O)CO` [prednisolone], the half-inhibitory concentration (IC50) in assay [1] (setting [3]) fell in the range of 100 to 500 nM.

`COc1cc([C@@H]2c3cc4c(cc3[C@@H](O[C@@H]3O[C@@H]5CO[C@@H](C)O[C@H]5[C@H](O)[C@H]3O)[C@H]3COC(=O)[C@H]23)OCO4)cc(OC)c1O` [etoposide, Etoposide]: the “concentration known to be lethal” value in the assay with bacteria and fungi is listed as 10^−5 M.

Turning to `O=c1[nH]cc(F)c(=O)[nH]1` [5-fluorouracil, 5-Fluorouracil], the “concentration known to be lethal” value in the assay on bacteria and fungi is reported as 10^−4 M.

For the molecule `O=C[C@@H](O)[C@@H](O)[C@H](O)[C@H](O)COP(=O)(O)O` [mannose-6-phosphate], the IC50 in assay [1] (setting [3]) fell in the range of 100 to 500 nM.

On to `O=C1C=CC(=O)c2c(O)cccc21` [juglone], for which the IC50 in assay [1] (setting [3]) lay within 100 to 500 nM.

As to `CN(C)C[C@@H]1CCn2cc(c3ccccc32)C2=C(C(=O)NC2=O)c2cn(c3ccccc23)CCO1` [Ly333531 (ruboxistaurin), ruboxistaurin], the 50% inhibitory concentration (IC50) in assay [1] (low potency agents) lay within 500 to 1000 nM.

On to `CCC(=O)O[C@]1(C(=O)CCl)[C@@H](C)C[C@H]2[C@@H]3CCC4=CC(=O)C=C[C@]4(C)[C@@]3(F)[C@@H](O)C[C@@]21C` [clobetasol propionate], for which, in assay [1] (setting [3]), the IC50 lay in the range of 1 to 100 nM.

As for `O=C1c2c(O)ccc(O)c2C(=O)c2c(NCCNCCO)ccc(NCCNCCO)c21` [mitoxantrone], in the assay on bacteria and fungi, the “concentration known to be lethal” value was 10^−5 M.

Regarding `CCC1=C[C@@H]2CN(C1)Cc1c([nH]c3ccccc13)[C@@](C(=O)OC)(c1cc3c(cc1OC)N(C)[C@H]1[C@@](O)(C(=O)OC)[C@H](OC(C)=O)[C@]4(CC)C=CCN5CC[C@]31[C@@H]54)C2` [vinorelbine], the IC50 in assay [1] (setting [3]) fell in the range of 1 to 100 nM.

On to `CCOC(=O)O[C@]1(C(=O)OCCl)CC[C@H]2[C@@H]3CCC4=CC(=O)C=C[C@]4(C)[C@H]3[C@@H](O)C[C@@]21C` [loteprednol etabonate], for which the IC50 in assay [1] (setting [3]) was in the range of 100 to 500 nM.

Turning to `CC(=O)O[C@H]1C(=O)[C@@]2(C)[C@H]([C@H](OC(=O)c3ccccc3)[C@]3(O)C[C@H](OC(=O)[C@H](O)[C@@H](NC(=O)c4ccccc4)c4ccccc4)C(C)=C1C3(C)C)[C@]1(OC(C)=O)CO[C@@H]1C[C@@H]2O` [paclitaxel], the “IL-1 induction of collagenase and stromelysin RNA levels in chondrocytes” value in assay [2] is reported as “inhibited”. In addition, the “IL-1 induced binding activity in lysates from chondrocytes” value in the assay with AP-1 is on record as “decreased”.

With `Nc1nc(Cl)nc2c1ncn2[C@H]1C[C@H](O)[C@@H](CO)O1` [cladribine], the IC50 in assay [1] (setting [3]) lay within 100 to 500 nM.

For the molecule `COc1ccc(C[C@H](N)C(=O)N[C@H]2[C@@H](O)[C@H](n3cnc4c(N(C)C)ncnc43)O[C@@H]2CO)cc1` [puromycin], in assay [1] (setting [3]), the IC50 was 100 to 500 nM.

Take `Cc1ccc(=O)n(-c2ccccc2)c1` [pirfenidone]: the half-inhibitory concentration (IC50) in assay [1] (setting [3]) lay within 1 to 100 nM.

A word on the IC50: it is the point on the concentration scale where inhibition reaches its midpoint.
